Assay results taken from paper PMC3607822 (The Journal of General Physiology, 2013).
Residue numbers refer to the chain shown, from its start. Where two headings read alike, the source gives them in different places.

What was measured:
Format in all cases: biochemical
[1] = target: T1, CNGA3 N7R-A, 613X channels (Homo sapiens, UniProt Q16281, R101A/R103A/R72A/R75A/R81A/R82A/R86A); assay: Inside-out patch clamp, CNGA3 N7R-A, 613X
T1 sequence (Q16281 1-612 R72A/R75A/R81A/R82A/R86A/R101A/R103A limits assumed): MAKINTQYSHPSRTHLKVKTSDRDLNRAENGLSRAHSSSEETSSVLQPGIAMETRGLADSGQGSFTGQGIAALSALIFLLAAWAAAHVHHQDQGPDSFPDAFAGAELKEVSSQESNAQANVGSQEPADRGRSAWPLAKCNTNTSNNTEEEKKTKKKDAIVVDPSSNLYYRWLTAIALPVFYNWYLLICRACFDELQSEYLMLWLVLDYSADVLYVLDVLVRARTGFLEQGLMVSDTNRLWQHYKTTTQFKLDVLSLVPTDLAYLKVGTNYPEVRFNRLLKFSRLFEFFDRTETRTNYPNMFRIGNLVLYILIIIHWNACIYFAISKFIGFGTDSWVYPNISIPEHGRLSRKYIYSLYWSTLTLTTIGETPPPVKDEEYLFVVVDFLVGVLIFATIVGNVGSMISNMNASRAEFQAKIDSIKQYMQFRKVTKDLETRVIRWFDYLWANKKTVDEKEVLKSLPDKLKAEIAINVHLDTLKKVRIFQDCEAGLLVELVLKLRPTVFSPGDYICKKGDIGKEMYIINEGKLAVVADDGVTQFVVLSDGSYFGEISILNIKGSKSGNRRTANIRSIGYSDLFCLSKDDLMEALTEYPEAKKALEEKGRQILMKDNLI

[2] = target: T2, heteromeric CNGA3+CNGB3 channels (Homo sapiens, UniProt Q16281+Q9NQW8); assay: Inside-out patch clamp, heteromeric CNGA3+CNGB3; details: for EC50: read-out: K1/2 cGMP
T2 sequence (Q16281 1-694): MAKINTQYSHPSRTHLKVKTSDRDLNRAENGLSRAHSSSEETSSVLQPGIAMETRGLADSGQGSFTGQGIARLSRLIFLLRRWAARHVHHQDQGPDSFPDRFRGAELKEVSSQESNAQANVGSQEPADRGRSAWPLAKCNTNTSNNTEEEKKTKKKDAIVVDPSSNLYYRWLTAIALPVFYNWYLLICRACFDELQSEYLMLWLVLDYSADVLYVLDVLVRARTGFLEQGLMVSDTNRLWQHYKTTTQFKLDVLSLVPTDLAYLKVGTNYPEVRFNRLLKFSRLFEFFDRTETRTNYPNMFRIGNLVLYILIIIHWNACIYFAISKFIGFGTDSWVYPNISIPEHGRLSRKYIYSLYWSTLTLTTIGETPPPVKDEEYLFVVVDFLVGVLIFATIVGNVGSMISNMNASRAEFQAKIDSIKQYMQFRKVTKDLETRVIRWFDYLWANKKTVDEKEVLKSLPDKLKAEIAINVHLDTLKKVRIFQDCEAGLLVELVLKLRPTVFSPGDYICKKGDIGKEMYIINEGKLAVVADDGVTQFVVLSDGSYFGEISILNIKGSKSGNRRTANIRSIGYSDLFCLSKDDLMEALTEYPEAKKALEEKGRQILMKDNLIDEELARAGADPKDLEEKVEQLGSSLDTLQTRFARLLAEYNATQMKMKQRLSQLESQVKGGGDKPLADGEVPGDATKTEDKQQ
T2 sequence (Q9NQW8 1-809): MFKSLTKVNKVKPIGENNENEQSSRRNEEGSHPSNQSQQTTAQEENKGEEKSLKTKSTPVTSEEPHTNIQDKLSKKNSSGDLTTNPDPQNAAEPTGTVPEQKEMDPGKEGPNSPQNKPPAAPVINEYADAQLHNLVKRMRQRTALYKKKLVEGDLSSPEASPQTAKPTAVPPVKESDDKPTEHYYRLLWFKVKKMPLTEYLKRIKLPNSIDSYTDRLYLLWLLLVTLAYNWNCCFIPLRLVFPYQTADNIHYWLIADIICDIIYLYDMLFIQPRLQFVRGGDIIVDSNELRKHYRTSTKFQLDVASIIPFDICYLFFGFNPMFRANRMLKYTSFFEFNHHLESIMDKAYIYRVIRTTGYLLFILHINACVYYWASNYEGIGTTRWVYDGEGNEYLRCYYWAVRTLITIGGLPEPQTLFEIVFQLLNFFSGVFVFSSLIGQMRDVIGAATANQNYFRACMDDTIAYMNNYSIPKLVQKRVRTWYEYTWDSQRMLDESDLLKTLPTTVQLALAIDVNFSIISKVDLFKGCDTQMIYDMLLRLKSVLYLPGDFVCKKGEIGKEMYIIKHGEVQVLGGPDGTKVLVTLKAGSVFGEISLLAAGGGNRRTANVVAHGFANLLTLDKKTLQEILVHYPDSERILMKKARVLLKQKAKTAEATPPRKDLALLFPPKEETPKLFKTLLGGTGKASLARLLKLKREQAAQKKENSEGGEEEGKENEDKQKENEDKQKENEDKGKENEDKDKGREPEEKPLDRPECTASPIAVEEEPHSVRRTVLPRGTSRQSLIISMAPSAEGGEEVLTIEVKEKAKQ

[3] = target: T3, CNGA3 P99L, A105P (PA-LP) channels (Homo sapiens, UniProt Q16281, A105P/P99L); assay: Inside-out patch clamp, CNGA3 P99L, A105P; details: for EC50: read-out: K1/2 cGMP
T3 sequence (Q16281 1-694 P99L/A105P): T2 sequence (Q16281 1-694) with P99L, A105P

[4] = representative patch, before PIP2
[5] = representative patch, before PIP3
[6] = mean, after 1 µM PIP3 or 10 µM PIP2
[7] = representative patch, after PIP3 or PIP2
[8] = representative patch, 1 µM PIP3

Compound: Nc1nc2c(ncn2[C@@H]2O[C@@H]3COP(=O)(O)O[C@H]3[C@H]2O)c(=O)[nH]1 [cGMP, cyclic guanosine monophosphate]
- Hill coefficient ([1]; cGMP activation): 1.82 ± 0.04 (6)
- EC50 ([1]; read-out: K1/2 cGMP, +80 mV, no PIPn): 16.4 ± 1.65 µM
- Hill coefficient h ([2]; mean, before PIPn): 1.9
- EC50 ([2]; mean, before PIPn): 13.5 ± 0.6 µM
- EC50 [2, 4]: 12.8 µM
- EC50 [2, 5]: 16.1 µM
- Hill coefficient h [2, 4]: 1.8
- Hill coefficient h [2, 5]: 2.05
- EC50 ([3]; +80 mV, no PIPn): 5.3 ± 0.18 µM
- EC50 [3, 5]: 5.7 µM
- Hill coefficient h [3, 5]: 1.7
- Po max cGMP ([3]; saturating cGMP): 0.95 ± 0.01 (4)

Compound: phosphatidylinositol (3,4,5)-trisphosphate [PIP3]
- fold change in K1/2 cGMP after PIP3 ([1]; 10 µM PIP3): 1.02 ± 0.05 fold
- fold shift of K1/2 cGMP to higher concentration ([2]; 1 µM PIP3): ~1.5 fold
- effect on currents elicited by 5 µM cGMP ([2]; 1 µM PIP3 or 10 µM PIP2): attenuated the currents
- Imax cAMP/cGMP after phosphoinositide ([2]; after PIP2 or PIP3 application): 0.30 ± 0.03
- Hill coefficient h after phosphoinositide [2, 6]: 1.6
- K1/2 cGMP after phosphoinositide [2, 6]: 20.8 ± 1.4 µM
- Hill coefficient h after phosphoinositide [2, 7]: 2.0
- K1/2 cGMP after phosphoinositide [2, 7]: 26.5 µM
- Imax cGMP compared with initial values ([2]; saturating cGMP, after 1 µM PIP3 or 10 µM PIP2): 95.4 ± 2.8%
- Hill coefficient h after phosphoinositide ([3]; after PIP3 or PIP2 application): 1.8
- K1/2 cGMP after phosphoinositide ([3]; after PIP3 or PIP2 application): 9.4 ± 0.9 µM
- Hill coefficient h after PIP3 [3, 8]: 1.7
- K1/2 cGMP after PIP3 [3, 8]: 11.4 µM
